# Data from the supplement of paper PMC10307832.
# Key:
# Assay in all cases: relative viability (nuclei count vs DMSO), 5 days (fraction); higher = more cells survive
# IPA-3 + Palbociclib = compound: C1=CC=C2C(=C1)C=CC(=C2SSC3=C(C=CC4=CC=CC=C43)O)O [IPA-3] + CC(=O)c1c(C)c2cnc(Nc3ccc(N4CCNCC4)cn3)nc2n(C2CCCC2)c1=O [Palbociclib] (partner 0.5 µM)
# Method in brief: (§1)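 Lung cancer cell lines, seeded in 1536-well plates, were treated the following day by pin tool with a single drug or with five library-drug doses (not always all listed) in √10 steps on top of a fixed anchor-drug dose. Cells were fixed and nuclei stained in one step after 5 days, and nuclei were counted. Relative viability is the nuclei count for treated wells divided by that for vehicle wells, reported as medians of duplicate plates.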
# Doramapimod + Trametinib = compound: Cc1ccc(-n2nc(C(C)(C)C)cc2NC(=O)Nc2ccc(OCCN3CCOCC3)c3ccccc23)cc1 [Doramapimod] + CC(=O)Nc1cccc(-n2c(=O)n(C3CC3)c(=O)c3c(Nc4ccc(I)cc4F)n(C)c(=O)c(C)c32)c1 [Trametinib] (partner 0.02 µM)
# Method in brief: as §1
# Doramapimod + Alpelisib = compound: Cc1ccc(-n2nc(C(C)(C)C)cc2NC(=O)Nc2ccc(OCCN3CCOCC3)c3ccccc23)cc1 [Doramapimod] + Cc1nc(NC(=O)N2CCC[C@H]2C(N)=O)sc1-c1ccnc(C(C)(C)C(F)(F)F)c1 [Alpelisib] (partner 2 µM)
# Method in brief: as §1
# RAF265 + Luminespib = compound: Cn1c(Nc2ccc(C(F)(F)F)cc2)nc2cc(Oc3ccnc(-c4ncc(C(F)(F)F)[nH]4)c3)ccc21 [RAF265] + CCNC(=O)c1noc(-c2cc(C(C)C)c(O)cc2O)c1-c1ccc(CN2CCOCC2)cc1 [Luminespib] (partner 0.01 µM)
# Method in brief: as §1
Cell Line,relative viability (IPA-3 + Palbociclib; first compound 0.2 µM),relative viability (IPA-3 + Palbociclib; first compound 0.6325 µM),relative viability (IPA-3 + Palbociclib; first compound 2 µM),relative viability (IPA-3 + Palbociclib; first compound 6.325 µM),relative viability (IPA-3 + Palbociclib; first compound 20 µM),relative viability (Doramapimod + Trametinib; first compound 0.02 µM),relative viability (Doramapimod + Trametinib; first compound 0.06325 µM),relative viability (Doramapimod + Trametinib; first compound 0.2 µM),relative viability (Doramapimod + Trametinib; first compound 0.6325 µM),relative viability (Doramapimod + Trametinib; first compound 2 µM),relative viability (Doramapimod + Alpelisib; first compound 0.02 µM),relative viability (Doramapimod + Alpelisib; first compound 0.06325 µM),relative viability (Doramapimod + Alpelisib; first compound 0.2 µM),relative viability (Doramapimod + Alpelisib; first compound 0.6325 µM),relative viability (Doramapimod + Alpelisib; first compound 2 µM),relative viability (RAF265 + Luminespib; first compound 0.01 µM),relative viability (RAF265 + Luminespib; first compound 0.03162 µM),relative viability (RAF265 + Luminespib; first compound 0.1 µM),relative viability (RAF265 + Luminespib; first compound 0.3162 µM),relative viability (RAF265 + Luminespib; first compound 1 µM)
NCI-H1915,0.498,0.514,0.534,0.495,0.54,0.303,0.313,0.311,0.311,0.277,1.04,1.1,1.12,1.11,1.08,0.819,0.728,0.616,0.258,0.188
NCI-H2009,0.203,0.202,0.2,0.231,0.151,0.285,0.247,0.351,0.308,0.239,1.23,1.22,1.22,1.13,1.13,1.05,0.95,0.975,1.03,0.883
ChaGo-K-1,0.952,0.824,0.923,0.955,1.02,0.753,0.811,0.851,0.844,0.725,–,–,–,–,–,0.722,0.666,0.575,0.545,0.396
COR-L 105,0.409,0.275,0.405,0.393,0.399,0.391,0.419,0.478,0.462,0.318,0.844,1.07,0.983,1,0.963,0.826,0.821,0.666,0.766,0.385
NCI-H2170,0.447,0.389,0.364,0.334,0.441,0.854,1.02,0.934,0.981,0.825,0.802,0.823,0.769,0.915,0.741,0.791,0.658,0.688,0.254,0.381
A549,–,–,–,–,–,–,–,–,–,–,0.69,0.626,0.675,0.784,0.55,–,–,–,–,–
SW 1573,0.492,0.332,0.412,0.363,0.0729,0.524,0.429,0.451,0.452,0.514,0.766,0.712,0.644,0.726,0.549,0.571,0.179,0.161,0.131,0.149
NCI-H1975,0.843,0.555,0.642,0.54,0.569,0.337,0.307,0.348,0.4,0.331,0.756,0.674,0.69,0.77,0.676,0.244,0.272,0.199,0.197,0.12
Calu-6,–,–,–,–,–,–,–,–,–,–,1.05,0.924,0.866,1.16,0.986,–,–,–,–,–
